US4950686A, “Anti-mycoplasma agent” (Shionogi & Co., Ltd., priority 1986, dated 1990)
Converted amounts (≈) assume the structure as drawn. Structures can show the parent of a compound that is named as a salt. Where two headings read alike, the source gives them in different places.

Assays:
[1] = test system: Mycoplasma gallisepticum MR-1 (wild strain, tylosin-resistant); assay: Anti-mycoplasma activity in vitro (MIC, broth dilution), strain MR-1; type: cell-based; conditions: Mg MR-1, 37° C., 7 days
Procedure: (§1) (1) Anti-mycoplasma activity test in vitro
(§2) MIC values of each of Tropolones were measured on the following strains according to the following method.
(§3) (a) Mycoplasma gallisepticum
MR-1 (wild strain, tylosin-resistant)
(§4) Medium: Chick PPLO broth supplemented with 20% equine serum (Eiken Kagaku Co., Ltd.)
(§5) Method: Broth dilution method
(§6) Inoculum: Culture incubated at 37° C. for 24-48 hr which is diluted with broth to 10^6 CCU/ml immediately before the use.
(§7) To 1.6 ml of the broth is added 0.2 ml of an agent which has been subjected to 2-fold dilution and then added 0.2 ml of inoculum, which is incubated at 37° C. for 7 days.

[2] = test system: Mycoplasma gallisepticum T-7-T (wild strain, tylosin-resistant); assay: Anti-mycoplasma activity in vitro (MIC, broth dilution), strain T-7-T; type: cell-based; conditions: Mg T-7-T, 37° C., 7 days
Procedure: as §1, §2, §3
(§8) T-7-T (wild strain, tylosin-resistant)
as §4, §5, §6, §7

[3] = test system: Mycoplasma hyopneumoniae ST-11 (standard strain); assay: Anti-mycoplasma activity in vitro (MIC, broth dilution), strain ST-11; type: cell-based; conditions: Mh ST-11
Procedure: as §1, §2
(b) Mycoplasma hyopneumoniae
Strain: ST-11 (standard strain)
Medium: 850 ml of Hanks' solution supplemented with 0.5% lactoalbumin, 50 ml of 25% yeast, 100 ml of equine serum and 4-6 ml of 0.5% phenol red (pH 7.4-7.6)
as §5
Inoculum: Culture which is incubated for 3-4 days and diluted 10 times with the broth if color of the broth becomes yellow then. If it needs over 4 days until color of the broth becomes yellow, it is further subcultured. This is diluted 10 times with the broth to give inoculum.
Assay is done in the same manner as in the above (a).

[4] = Acute toxicity test in chickens; type: in vivo, SPF chickens of layer type; conditions: 400 mg/kg or 200 mg/kg once oral, 2 weeks; for increase of weight: vs control group
Procedure: Acute toxicity tests on tropolone L-lysine salt and O-acetyltropolone were performed according to the following method.
The tests had been done on 15 days old SPF chickens of layer type (5 males and 5 females) for 2 weeks. The above two compounds suspended in 5% gum arabic are orally and forcibly administered once at a dose of 400 mg/kg or 200 mg/kg. To a control group is administered 5% gum arabic.

[5] = test system: Mycoplasma gallisepticum S6 (standard strain); assay: Mycoplasma gallisepticum air-sac infection method in chicken, strain S6; type: in vivo, Mycoplasma gallisepticum; SPF chicken (white leghorn)
Procedure: (§9) (2) Test of Effectiveness Mycoplasma gallisepticum air-sac infection method
(§10) Inoculation: To the right air-sac of 9 days old SPF chicken (a white leghorn) which has abstained from water and feed one day before is inoculated 0.20-0.25 ml/chicken of fresh mycoplasma culture incubated for 24-48 hr and diluted with broth (usually 100 times). The concentration in Table 2 is shown in a unit of mg/ml.
(§11) Medium: Chick PPLO broth supplemented with 15% equine serum (Eiken Kagaku Co., Ltd.)
(§12) Administration: A compound of this invention dissolved or suspended in the following solution is orally and forcibly administered once by a cannula immediately after the infection.
(§13) Anatomization and Isolation of Microorganism: The chickens are anatomized 5 days after the infection, and the right and left air sacs are investigated whether they are attacked with a disease or not. The change caused by the disease is represented in four degrees; -: no change, +: slight, ++: medium and +++: serious. Microorganism is isolated from the right and left air-sacs and the trachea by using a sterilized applicator.
(§14) Judgement: Judgement is done through an index of an air-sac disease and an index of a microorganism-isolation.
(§15) Index of an air-sac-disease: First, indexes in the right and left air-sacs are separately calculated according to the following formula;
(§16) {degree of disease (0-3)×chickens}/anatomized chickens
(§17) and the index is calculated by the following formula;
(§18) (index of right air-sac)×1+(index of left air-sac)×2
(§19) Index of a microorganism isolation:
(§20) P: chickens from the right air-sac of which microorganism is isolated,
(§21) Q: chickens from the trachea of which microorganism is isolated,
(§22) R: chickens from the left air-sac of which microorganism is isolated, and
(§23) S: chickens investigated.

[6] = test system: Mycoplasma gallisepticum T-7-T (wild strain, tylosin-resistant); assay: Mycoplasma gallisepticum air-sac infection method in chicken, strain T-7-T;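 for Index of Isolation: index = (P×1 + Q×2 + R×3)/S with range 0 to 6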; type: in vivo, Mycoplasma gallisepticum; SPF chicken (white leghorn); conditions: 100 mg/kg × once oral, 10 mg/ml sol. b; for Change of air-sac, left: + (chickens) / Change of air-sac, left: ++ (chickens) / Change of air-sac, left: +++ (chickens) / Change of air-sac, left: - (chickens) / Change of air-sac, right: + (chickens) / Change of air-sac, right: ++ (chickens) / Change of air-sac, right: +++ (chickens) / Change of air-sac, right: - (chickens) / Isolation, L (left air-sac) / Isolation, R (right air-sac) / Isolation, T (trachea) / Mycoplasma Isolated Chickens: inoculum 10^2; for Index of Isolation: inoculum 10^2, range 0-6.0; for Index of Disease: inoculum 10^2, range 0-9.0
Procedure: as §9, §8, §10, §11, §12, §13, §14, §15, §16, §17, §18, §19, §20, §21, §22, §23

[7] = test system: Mycoplasma gallisepticum S6 (standard strain); assay: Anti-mycoplasma activity in vitro (MIC, broth dilution), strain S6; type: cell-based; conditions: Mg S6, 37° C., 7 days
Procedure: as §1, §2, §3, §4, §5, §6, §7

[8] = 100 mg/kg × once oral, 10 mg/ml sol. b, inoculum 1.2 × 10^6
[9] = 100 mg/kg × once oral, 10 mg/ml sol. b, inoculum 1.2 × 10^6, range 0-6.0
[10] = 100 mg/kg × once oral, 10 mg/ml sol. b, inoculum 1.2 × 10^6, range 0-9.0
[11] = 200 mg/kg × once oral, 20 mg/ml sol. b, inoculum 1.18 × 10^6
[12] = Mycoplasmoides gallisepticum, 168 h, read-out: MIC
[13] = 200 mg/kg × once oral, 20 mg/ml sol. c, inoculum 6.3 × 10^4

Compound: O=c1cccccc1O [Compound 11, Tropolone L-lysine salt]
- MIC [1]: 0.78 µg/mL
- MIC [2]: 0.78 µg/mL
- MIC [3]: 0.78 µg/mL
- deaths [4]: none of chickens died
- increase of weight [4]: equal to the control group
- Change of air-sac, left: + (chickens) [5, 8]: 0
- Change of air-sac, left: ++ (chickens) [5, 8]: 0
- Change of air-sac, left: +++ (chickens) [5, 8]: 0
- Change of air-sac, left: - (chickens) [5, 8]: 8
- Change of air-sac, right: + (chickens) [5, 8]: 0
- Change of air-sac, right: ++ (chickens) [5, 8]: 0
- Change of air-sac, right: +++ (chickens) [5, 8]: 0
- Change of air-sac, right: - (chickens) [5, 8]: 8
- Isolation, L (left air-sac) [5, 8]: 2
- Isolation, R (right air-sac) [5, 8]: 0
- Isolation, T (trachea) [5, 8]: 1
- Mycoplasma Isolated Chickens [5, 8]: 2
- Index of Isolation [5, 9]: 0.54
- Index of Disease [5, 10]: 0
- Change of air-sac, left: + (chickens) [5, 11]: 0
- Change of air-sac, left: ++ (chickens) [5, 11]: 0
- Change of air-sac, left: +++ (chickens) [5, 11]: 0
- Change of air-sac, left: - (chickens) [5, 11]: 5
- Change of air-sac, right: + (chickens) [5, 11]: 0
- Change of air-sac, right: ++ (chickens) [5, 11]: 0
- Change of air-sac, right: +++ (chickens) [5, 11]: 0
- Change of air-sac, right: - (chickens) [5, 11]: 5
- Isolation, L (left air-sac) [5, 11]: 0
- Isolation, R (right air-sac) [5, 11]: 4
- Isolation, T (trachea) [5, 11]: 0
- Mycoplasma Isolated Chickens [5, 11]: 4
- Index of Isolation ([5]; 200 mg/kg × once oral, 20 mg/ml sol. b, inoculum 1.18 × 10^6, range 0-6.0): 0.8
- Index of Disease ([5]; 200 mg/kg × once oral, 20 mg/ml sol. b, inoculum 1.18 × 10^6, range 0-9.0): 0
- Change of air-sac, left: + (chickens) [6]: 0
- Change of air-sac, left: ++ (chickens) [6]: 0
- Change of air-sac, left: +++ (chickens) [6]: 0
- Change of air-sac, left: - (chickens) [6]: 8
- Change of air-sac, right: + (chickens) [6]: 0
- Change of air-sac, right: ++ (chickens) [6]: 0
- Change of air-sac, right: +++ (chickens) [6]: 0
- Change of air-sac, right: - (chickens) [6]: 8
- Isolation, L (left air-sac) [6]: 1
- Isolation, R (right air-sac) [6]: 4
- Isolation, T (trachea) [6]: 5
- Mycoplasma Isolated Chickens [6]: 5
- Index of Isolation [6]: 2.90
- Index of Disease [6]: 0
- MIC [7]: 0.39 µg/mL

Compound: CC(=O)Oc1cccccc1=O [Compound 13, O-Acetyltropolone]
- MIC [1, 12]: 0.78 µg/mL (≈ 4.75 µM)
- MIC [2, 12]: 0.78 µg/mL (≈ 4.75 µM)
- deaths [4]: none of chickens died
- increase of weight [4]: a little inferior to the control-group
- Change of air-sac, left: + (chickens) [5, 8]: 0
- Change of air-sac, left: ++ (chickens) [5, 8]: 0
- Change of air-sac, left: +++ (chickens) [5, 8]: 0
- Change of air-sac, left: - (chickens) [5, 8]: 8
- Change of air-sac, right: + (chickens) [5, 8]: 1
- Change of air-sac, right: ++ (chickens) [5, 8]: 0
- Change of air-sac, right: +++ (chickens) [5, 8]: 0
- Change of air-sac, right: - (chickens) [5, 8]: 7
- Isolation, L (left air-sac) [5, 8]: 2
- Isolation, R (right air-sac) [5, 8]: 2
- Isolation, T (trachea) [5, 8]: 3
- Mycoplasma Isolated Chickens [5, 8]: 3
- Index of Isolation [5, 9]: 1.75
- Index of Disease [5, 10]: 0.1
- Change of air-sac, left: + (chickens) [5, 13]: 0
- Change of air-sac, left: ++ (chickens) [5, 13]: 0
- Change of air-sac, left: +++ (chickens) [5, 13]: 0
- Change of air-sac, left: - (chickens) [5, 13]: 5
- Change of air-sac, right: + (chickens) [5, 13]: 0
- Change of air-sac, right: ++ (chickens) [5, 13]: 0
- Change of air-sac, right: +++ (chickens) [5, 13]: 0
- Change of air-sac, right: - (chickens) [5, 13]: 5
- Isolation, L (left air-sac) [5, 13]: 0
- Isolation, R (right air-sac) [5, 13]: 0
- Mycoplasma Isolated Chickens [5, 13]: 0
- Index of Disease ([5]; 200 mg/kg × once oral, 20 mg/ml sol. c, inoculum 6.3 × 10^4, range 0-9.0): 0
- Index of Isolation ([5]; 200 mg/kg × once oral, 20 mg/ml sol. c, inoculum 6.3 × 10^4, trachea ND, range 0-6.0): 0
- Change of air-sac, left: + (chickens) [6]: 0
- Change of air-sac, left: ++ (chickens) [6]: 0
- Change of air-sac, left: +++ (chickens) [6]: 0
- Change of air-sac, left: - (chickens) [6]: 8
- Change of air-sac, right: + (chickens) [6]: 0
- Change of air-sac, right: ++ (chickens) [6]: 0
- Change of air-sac, right: +++ (chickens) [6]: 0
- Change of air-sac, right: - (chickens) [6]: 8
- Isolation, L (left air-sac) [6]: 1
- Isolation, R (right air-sac) [6]: 1
- Isolation, T (trachea) [6]: 2
- Mycoplasma Isolated Chickens [6]: 2
- Index of Isolation [6]: 0.90
- Index of Disease [6]: 0
- MIC [7, 12]: 0.39 µg/mL (≈ 2.38 µM)

Compound: O=c1c(O)ccccc1Br [Compound 24, 7-Bromotropolone]
- MIC [1, 12]: 1.56 µg/mL (≈ 7.76 µM)
- MIC [2, 12]: 0.78 µg/mL (≈ 3.88 µM)
- MIC ([3]; Mesomycoplasma hyopneumoniae, read-out: MIC): 0.2 µg/mL (≈ 0.995 µM)
- Change of air-sac, left: + (chickens) [5, 8]: 0
- Change of air-sac, left: ++ (chickens) [5, 8]: 0
- Change of air-sac, left: +++ (chickens) [5, 8]: 0
- Change of air-sac, left: - (chickens) [5, 8]: 8
- Change of air-sac, right: + (chickens) [5, 8]: 0
- Change of air-sac, right: ++ (chickens) [5, 8]: 0
- Change of air-sac, right: +++ (chickens) [5, 8]: 0
- Change of air-sac, right: - (chickens) [5, 8]: 8
- Isolation, L (left air-sac) [5, 8]: 4
- Isolation, R (right air-sac) [5, 8]: 1
- Isolation, T (trachea) [5, 8]: 7
- Mycoplasma Isolated Chickens [5, 8]: 7
- Index of Isolation [5, 9]: 2.70
- Index of Disease [5, 10]: 0
- Change of air-sac, left: + (chickens) [6]: 0
- Change of air-sac, left: ++ (chickens) [6]: 0
- Change of air-sac, left: +++ (chickens) [6]: 0
- Change of air-sac, left: - (chickens) [6]: 8
- Change of air-sac, right: + (chickens) [6]: 0
- Change of air-sac, right: ++ (chickens) [6]: 0
- Change of air-sac, right: +++ (chickens) [6]: 0
- Change of air-sac, right: - (chickens) [6]: 8
- Isolation, L (left air-sac) [6]: 3
- Isolation, R (right air-sac) [6]: 3
- Isolation, T (trachea) [6]: 5
- Mycoplasma Isolated Chickens [6]: 5
- Index of Isolation [6]: 2.80
- Index of Disease [6]: 0
- MIC [7, 12]: 0.39 µg/mL (≈ 1.94 µM)
